Measured values from patent US20130253179A1, “Functionalization Processes and Reactants Used in Such Processes Using an Isatoic Anhydride or a Derivative Thereof, Biological Molecules Thus Treated and Kits” (priority 2010, published 2013).

System: HIV WT transcript
Experiment: NASBA amplification of functionalised, captured and eluted HIV transcripts
Assay type: biochemical
Description: In the preceding example 12, 4 μg of a WT HIV transcript (1083 nucleotides, internal production, bioMérieux batch 841470301, C=3.27E12 copies μl) was biotinylated with different concentrations of the compound (24) (0 mM, 15 mM, 30 mM, 120 mM, 180 mM, i.e. the experiments #1-7 of Table 6). This transcript was then captured on Merck MagPrep 25 Streptavidin magnetic particles, then, after rinsing, the particles were subjected to a 100 mM DTT treatment in PBS 1x pH 7 at 40° C. for one hour, in order to cleave the disulfide bond (SS) and elute the transcripts with —SH anthranilate groups, as shown in FIG. 16. We evaluated the ability of these transcripts to be amplified by the NASBA technology. This evaluation was performed as a comparison with an unfunctionalised “bare” HIV_WT transcript range.
The amplification is performed on a NucliSENS EasyQ instrument (bioMérieux, Lyon, France) and with a NucliSENS EasyQ HIV-1 V2.0 kit (bioMérieux, Lyon, France, ref. 285033, batch 09122106). The software used is NucliSENS EasyQ Director, and the protocol is QL1-60 1.0 (bioMérieux, Lyon, France).
After functionalisation with compound 24, capture and elution in 8 μL of 100 mM DTT, as described in example 12, the transcripts of experiments #2-5 from Table 7 were assayed on RNA 6000 NANO chip with the AGILENT bioanalyzer (Santa Clara, USA), and were diluted in the following concentrations: 1000 copies, 100 copies, 50 copies, 10 copies, 1 copy, 0 copies in 15 μl. An HIV IC transcript (internal control of the same amplified sequence as the WT (wild type) transcript, but detected by a molecular beacon carrying another fluorophore) diluted to 360 copies is added to the 15 μl volume, and will be present in all of the wells in which the amplifications occur. This transcript serves to monitor the correct operation of the amplification. The tests are carried out in triplicate.
Six Accuspheres ENZ II (NucliSENS EasyQ HIV-1 V2.0 kit, ref. 285033, bioMérieux, Lyon, France) are deposited into a 1.5 ml polypropylene tube. A volume of 270 μL of ENZdil H (NucliSENS EasyQ HIV-1 V2.0 kit, ref. 285033, bioMérieux, Lyon, France) is added onto the Accuspheres, and 15 minutes are allowed to pass, for them to dissolve completely. The twelve Accuspheres PRM H (NucliSENS EasyQ HIV-1 V2.0 kit, ref. 285033, bioMérieux, Lyon, France) are deposited into a 1.5 ml polypropylene tube 1080 μL of PRMdi l H (NucliSENS EasyQ HIV-1 V2.0 kit, ref. 285033, bioMérieux, Lyon, France) is added onto these Accuspheres and the mixture is immediately vortex stirred until the Accuspheres dissolve completely. After complete dissolution in the two tubes (mix ENZ II and mix PRM H), these mixtures are centrifuged with a benchtop centrifuge. […]

Compound: Cn1c(=O)oc(=O)c2cc(NC(=O)CCSSCCNC(=O)CCOCCOCCOCCOCCNC(=O)CCCCC3SCC4NC(=O)NC43)ccc21 (stereo not shown) [5Biot PEG4 SS IA Me 24]
- Minimum number of copies detected (15 mM functionalisation reagent): 10 copies
- Minimum number of copies detected (30 mM functionalisation reagent): 10 copies
- Minimum number of copies detected (120 mM functionalisation reagent): 100 copies
- Minimum number of copies detected (180 mM functionalisation reagent): 1000 copies
